Measurements reported in patent US20210236512A1 (ZARODEX THERAPEUTICS LIMITED, priority 2018, published 2021).
Values joined by “and” are separate entries in the source; they are usually repeats but may differ in a detail not shown here. Equal entries are not always repeated. “Also recorded” adds a separate entry of the source.

Legend:
[1] = tested on: B cell subsets in bone marrow; test: Wild type mouse study: bone marrow B cell immunophenotyping by flow cytometry
[2] = Michel. L. et al., 2015; cited from earlier work
[3] = tested on: serum/plasma IgG, IgA, IgM; settings: cited from earlier work
[4] = tested on: Vaccine specific-IgG (Haemophilus influenza B, Pneumococcus, Tetanus); settings: human, in vivo
[5] = tested on: anti-type II collagen IgG1 and IgG2a; test: Mouse CIA model: specific anti-collagen immunoglobulin by ELISA; assay type: in vivo, DBA/1 mice
[6] = tested on: Immunoglobulins (IgG, IgA, IgM); test: Immunological assessment of referred patients taking clozapine: serum immunoglobulins; assay type: in vivo, human; settings: for Serum IgG after clozapine stopped: 24 months after discontinuation; for Serum IgG at discontinuation of clozapine: starting value before recovery
[7] = tested on: Immunoglobulin levels (IgG, IgA and IgM); test: First observational study: serum immunoglobulin levels by nephelometry, clozapine-treated vs clozapine-naive patients; assay type: in vivo, human
[8] = clozapine treatment for six weeks (Hinze-Selch et al., 1998)
[9] = one line per patient of Table 3
[10] = sub-group A: all diagnoses, all smoking, secondary causes not excluded, n=123
[11] = sub-group A: all diagnoses, all smoking, secondary causes not excluded, n=123, listed as clozapine

CN1CCN(C2=Nc3cc(Cl)ccc3Nc3ccccc32)CC1 [Clozapine, clozapine]
Pro-B cell fraction in bone marrow ([1]; 10 mg/kg IP, 21 days): without any change
Proportion of pre-pro B cells in bone marrow ([1]; 10 mg/kg IP, 21 days): significant increase
Reduction in the percentage of long-lived plasma cells in the bone marrow compared to control ([1]; 5 and 10 mg/kg IP, 21 days, significant): ~30%
B cells in the bone marrow (BM), overall ([1]; any dose of clozapine (2.5, 5, 10 mg/kg IP, 21 days)): No overall reduction
Percentage of immature B cells in bone marrow ([1]; clozapine IP, 21 days): reduction
Pre-B cells in bone marrow ([1]; dose-dependent, significant vs control even at 2.5 mg/kg): reduction
Percentage of pre-B cells that were proliferating ([1]; reaching significance for the 5 mg/kg dose): diminished
CNS penetration [2]: high levels of CNS penetration
IgA, IgG, absolute neutrophil count and white blood cell count vs control group ([3]; Lozano et al., 2016): no differences
IgA or IgM concentrations or pattern of autoantibodies [3, 8]: no significant effect
Serum concentrations of IgG [3, 8]: significant increases
Mean plasma levels of IgM vs control group ([3]; outpatients on clozapine for at least five years (Lozano et al., 2016)): overall decrease
Failed to develop an IgG response above >=50 mg/L following Pneumovax II [4]: 73%
Failing to exceed the >=0.1 IU/mL post-vaccination Tetanus-IgG level [4]: 1/12
Failing to mount a Haemophilus-IgG response >=1 mcg/ml post-Menitorix (HiB/MenC) vaccination [4]: 42%
IgG to Haemophilus influenza B (HiB) <1 mcg/ml at initial assessment, patients [4]: 75%
Pneumococcus-IgG <50 mg/L at initial assessment, patients [4]: 94%
Response to haemophilus and/or pneumococcal vaccination, individual referred patient [4]: Failure to responds to; also recorded: Durable pneumococcal; also recorded: Non-durable
Responses to vaccination impaired, patients / patients assessed [4]: 10/11
Tetanus-IgG <0.1 IU/mL at initial assessment, patients [4]: 38%
Reduction of anti-type II collagen IgG1 ([5]; 10 mg/kg from day 15): reaching statistical significance
Serum anti-type II collagen IgG2a ([5]; 5 or 10 mg/kg from day 1 or day 15, single time point): no significant impact
Levels of anti-type II collagen IgG1 ([5]; across all doses tested): nominal reductions
Serum IgA and IgM following cessation of clozapine ([6]; FIG. 5 / one patient over 24 months): without clear improvement; also recorded: remained low
Serum IgA, individual referred patient [6, 9]: IgA 0.54 g/L; also recorded: IgA < 0.22 g/L; also recorded: IgA 0.49 g/L; also recorded: IgA 0.38 g/L; also recorded: undetectable; also recorded: IgA 0.26 g/L; also recorded: IgA 0.81 g/L; also recorded: IgA 0.63 g/L
Serum IgM, individual referred patient [6, 9]: IgM 0.3 g/L; also recorded: IgM < 0.17 g/L; also recorded: IgM 0.41 g/L; also recorded: IgM 0.23 g/L; also recorded: IgM 0.07 g/L; also recorded: IgM 0.18 g/L
Serum IgG, individual referred patient ([6]; one line per patient of Table 3 (clozapine dose and duration differ)): IgG 4.8 g/L; also recorded: IgG < 1.34 g/L; also recorded: IgG 5.24 g/L; also recorded: IgG 2.68 g/L; also recorded: IgG 2.98 g/L; also recorded: IgG 1.2 g/L; also recorded: IgG 3.3 g/L; also recorded: IgG 2.38 g/L; also recorded: IgG 4.24 g/L; also recorded: IgG 6.65 g/L; also recorded: IgG 5.61 g/L; also recorded: IgG 4.79 g/L
Serum IgG after clozapine stopped ([6]; one patient): IgG rose to 5.95 from g/L
Serum IgG after clozapine stopped ([6]; one patient, listed as clozapine): 5.95 g/L
Serum IgA after clozapine stopped ([6]; one patient, after 24 months): 0.29
Serum IgM after clozapine stopped ([6]; one patient, after 24 months): 0.49 after 24 months
Serum IgG after clozapine stopped, intermediate value ([6]; one patient, within the 24 months after discontinuation): 4.8 g/L
Serum IgG post-discontinuation of clozapine ([6]; over three years (FIG. 5)): 5.95 g/L
Mean serum IgA ([6]; referred patients on clozapine): 0.34 g/L
Mean serum IgG ([6]; referred patients on clozapine): 3.6 g/L
Mean serum IgM ([6]; referred patients on clozapine): 0.21 g/L
Serum IgG at discontinuation of clozapine [6]: 3.3 g/L
Serum IgG at discontinuation of clozapine ([6]; listed as clozapine): 3.5 g/L and 3.3 g/L
Concentrations / distribution of serum IgG, IgA and IgM vs clozapine-naive control group ([7]; FIG. 1A-D): significantly reduced; also recorded: leftward shift (reduction)
Effect of duration of clozapine therapy on serum IgG levels ([7]; p 0.014, not observed in clozapine-naive patients): associated with lower serum IgG levels; also recorded: progressively reduced IgG levels
Serum IgA <0.5 g/L, percentage of patients [7, 10]: 1.6%
Serum IgA <0.6 g/L, percentage of patients [7, 10]: 2.4%
Serum IgA <0.7 g/L, percentage of patients [7, 10]: 6.5%
Serum IgA <0.8 g/L (below reference range 0.8-4.0 g/L), percentage of patients [7, 10]: 13.1% and 13.0%
Serum IgG <3 g/L, percentage of patients [7, 10]: 0.8%
Serum IgG <4 g/L, percentage of patients [7, 10]: 1.6%
Serum IgG <5 g/L, percentage of patients [7, 10]: 3.3%
Serum IgG <6 g/L (below reference range 6-16 g/L), percentage of patients [7, 10]: 9.8%
Serum IgM <0.2 g/L, percentage of patients [7, 10]: 8.1%
Serum IgM <0.3 g/L, percentage of patients [7, 10]: 16.3%
Serum IgM <0.4 g/L, percentage of patients [7, 10]: 29.3%
Serum IgM <0.5 g/L (below reference range 0.5-1.9 g/L), percentage of patients [7, 10]: 38.2%
Serum IgA <0.8 g/L (below reference range 0.8-4.0 g/L), percentage of patients [7, 11]: 13.0%
Serum IgG <6 g/L (below reference range 6-16 g/L), percentage of patients [7, 11]: 9.8%
Serum IgM <0.5 g/L (below reference range 0.5-1.9 g/L), percentage of patients [7, 11]: 38.2%
Serum IgA <0.5 g/L, percentage of patients ([7]; sub-group B: possible secondary causes excluded, n=94): 2.1%
